# Source: patent US7491703B2, “Tetrapeptide regulating blood glucose level in diabetes mellitus” (“Access Bioscience” CJSC, priority 2003, dated 2009)
# Residues, ends and D or L forms follow the SMILES beside them.
# What was measured:
# [1] = system: patients with diabetes mellitus; assay: Clinical application in patients with diabetes mellitus (Example 8); assay type: in vivo, human; details: for blood glucose level on an empty stomach: 10 μg i.m. 10 days
# Description: The investigation was carried out in 36 patients aged from 16 to 83 years (7 men, 29 women). In 23 patients there was diagnosed type 1 diabetes, in 13 patients—type 2 diabetes. The disease duration varied from 1 year to 30 years. 32 patients received insulin. The majority of the patients suffering diabetes mellitus entered the hospital decompensated. Blood glucose level in these patients on an empty stomach oscillated from […]; the glycosylated haemoglobin—from 7.8 to 12.7%. All the patients were prescribed a rigid diet. All the patients were stratified randomly into 2 groups, with respect to age, sex, duration and stage of the disease (Table 7). Alongside with standard method of treatment 16 patients were prescribed Lys-Glu-Asp-Trp-NH2 [SEQ ID NO:1] tetrapeptide in dose of 10 μg (in 1 ml of 0.9% NaCl solution) intramuscularly once a day for 10 days. 4 patients suffering type 2 diabetes mellitus were prescribed together with standard treatment course Lys-Glu-Asp-Trp-NH2 [SEQ ID NO:1] tetrapeptide in dose of 100 μg (1 tablet) twice a day before meals during 10 days. Patients of the control group were administered with 1 ml of 0.9% of NaCl solution as a placebo following the same scheme.
# [2] = system: rats with alloxan diabetes; assay: Insulin effect on blood glucose level in alloxan diabetes rats after tetrapeptide course (Example 7); assay type: in vivo, rat
# Description: The study was conducted on 13 male rats, enrolled in the previous trial (treatment variant—28 days after completion of Lys-Glu-Asp-Trp-NH2 [SEQ ID NO:1] tetrapeptide administration). 8 healthy rats of the similar body weight constituted a separate group. All the animals were administered intravenously with insulin (0.3 units) and glucose concentration in their blood was estimated hereafter.
# [3] = system: rats with alloxan diabetes; assay: Insulin level in blood of alloxan diabetes rats (Example 5); assay type: in vivo, rat
# Description: The experiment was held on 18 white mongrel rats weighing an average 375±35 g. After the estimation of the blood glucose level all the animals were divided at random into 2 groups. Then all the animals were subjected to single intravenous injection with 1 ml of alloxan solution (“Spofa”) in dose of 35 mg/kg. 15 days later control animals were daily intraperitoneally administered with 0.3 ml of 0.9% NaCl solution, rats of the main group—with tetrapeptide Lys-Glu-Asp-Trp-NH2 [SEQ ID NO:1] in dose of 3 μg (in 0.3 ml of 0.9% NaCl) per rat during 11 days.
# [4] = Toxicity (experimentally proved)
# [5] = system: rats with alloxan diabetes; assay: Course of alloxan diabetes in rats, treatment variant (Example 2); assay type: in vivo, rat; details: for decrease of the blood glucose level: throughout the whole study
# Description: The study was conducted on 21 white mongrel male rats with average body weight 375±35 g. After estimation of glucose concentration in the blood all the animals were divided at random into 2 groups. Then all the animals were exposed to single intravenous administration 1 ml of alloxan solution (“Spofa”) in dose 35 mg/kg. In 15 days control animals were administered once a day intraperitoneally with 0.3 ml 0.9% NaCl solution, rats of the main group were administered with Lys-Glu-Asp-Trp-NH2 [SEQ ID NO:1] in dose 3 μg (in 0.3 ml of 0.9% NaCl solution) per rat during 11 days.
# [6] = system: rats with alloxan diabetes; assay: Course of alloxan diabetes in rats, prophylaxis and treatment variant (Example 3); assay type: in vivo, rat
# Description: The experiment was carried out on 15 white mongrel male rats with the average body weight 375±35 g. The animals were divided randomly into 2 groups. Control animals were administered once a day intravenously with 0.3 ml of 0.9% NaCl solution, while the main group animals were administered with Lys-Glu-Asp-Trp-NH2 [SEQ ID NO:1] tetrapeptide in dose of 3 μg (in 0.3 ml of 0.9% NaCl solution) per rat during 7 days. After that all the animals were subject to single intravenous administration of 1 ml of alloxan solution (“Spofa”) in dose 35 mg/kg. Lys-Glu-Asp-Trp-NH2 [SEQ ID NO:1] tetrapeptide had been administered during 3 days following alloxan administration. After that […] were subject to the second Lys-Glu-Asp-Trp-NH2 [SEQ ID NO:1] tetrapeptide course from 18 day till day 28 (total 11 days) in the same dose.
# [7] = of 16 insulin-treated patients, 10 μg i.m. once a day for 10 days
# [8] = tablets, patients treated with oral anti-diabetic medicine
# [9] = 8 days since the onset of tetrapeptide administration, 3 μg per rat i.p. daily
# [10] = 15 days after alloxan administration, before peptide
structure (smiles),measurement,setting,value
"NCCCC[C@H](N)C(=O)N[C@@H](CCC(=O)O)C(=O)N[C@@H](CC(=O)O)C(=O)N[C@@H](Cc1c[nH]c2ccccc12)C(N)=O [Lys-Glu-Asp-Trp-NH2, lysyl-glutamyl-aspartyl-tryptophane amid] (H-KEDW-NH2)",decrease of daily insulin dose as compared to the initial level,[1]; Case No. 1,26 units
same,coagulogram indices,"[1]; Case No. 1, at discharge",pronounced improvement
same,Daily dose of insulin,"[1]; Case No. 1, at discharge, on admission 82 units",56 units
same,blood glucose level on an empty stomach,"[1]; Case No. 1, type 2 diabetes, discharge on the 18th day, on admission 10 μmol/l",5.9 mM
same,decrease of daily insulin dose as compared to the initial level,[1]; Case No. 2,8 units
same,Daily norm of insulin,"[1]; Case No. 2, at discharge, on admission 40 units",32 units
same,blood glucose level on an empty stomach,"[1]; Case No. 2, type 1 diabetes, discharge on the 15th day, on admission 17.8 μmol/l",3.4 mM
same,reduction of the dose of diabeton,[1]; Case No. 3,two-fold
same,blood glucose level,"[1]; Case No. 3, after the completion of the treatment course",remained within the norm
same,glucose level on an empty stomach,"[1]; Case No. 3, type 2 diabetes, second day, 100 μg tablet twice a day with 2 diabeton tablets, on admission 11 μmol/l",6 mM
same,patients of the main group with decrease of insulin dose,[1]; none in control group,50%
same,"Decreased insulin dose necessary to achieve compensation, number of patients",[1]; [7],8
same,"Increased insulin dose necessary to achieve compensation, number of patients",[1]; [7],2
same,"The same insulin dose necessary to achieve compensation, number of patients",[1]; [7],6
same,reduction of the insulin daily dose,"[1]; on average, in 8 patients out of 16",8 units
same,reduction of the dose of insulin,[1]; patients who received tetrapeptide in tablets daily,25 units
same,compensation,[1]; [8],full compensation
same,reduction of the dose of oral anti-diabetic preparations,[1]; [8],two-fold
same,insulin dose increase to achieve compensation,[1]; the 1st patient,4 units
same,insulin dose increase to achieve compensation,[1]; the 2nd patient,14 units
same,Decrease in glucose content with respect to initial level,[2]; 30 minutes after insulin administration,44.2%
same,Glucose Concentration in blood,[2]; 30 minutes after insulin administration (0.3 units i.v.),123.6 ± 8.3 mg %
same,Glucose Concentration in blood,"[2]; initial level, 28 days after course completion",221.5 ± 11.2 mg %
same,decrease of the glucose level after insulin administration as compared to the control group,"[2]; rat, in vivo",two-fold
same,animals alive,[3]; 70th day after alloxan administration (control 62.5%),70%
same,Insulin content in blood,[3]; 1 day after the completion of tetrapeptide administration,3.6 ± 0.7 mkIU/ml
same,"insulin content in the blood, higher than in the control group",[3]; 8 days of substance administration,3.9 fold
same,Insulin content in blood,[3]; [9],3.1 ± 1.1 mkIU/ml
same,Insulin content in blood,[3]; 9 days after the completion of tetrapeptide administration,3.2 ± 0.5 mkIU/ml
same,Insulin content in blood,[3]; [10],1.5 ± 0.4 mkIU/ml
same,Insulin content in blood,[3]; 18 days after the completion of tetrapeptide administration,4.3 ± 0.5 mkIU/ml
same,Insulin content in blood,[3]; 28 days after the completion of tetrapeptide administration,4.1 ± 0.6 mkIU/ml
same,Insulin content in blood,[3]; 44 days after the completion of tetrapeptide administration,3.9 ± 1.1 mkIU/ml
same,amount of insulin in the blood,"[3]; all the following estimations, no insulin in control animals",13-18%
same,Insulin content in blood,[3]; initial level,23.8 ± 2.8 mkIU/ml
same,toxicity,[4],non-toxic
same,Glucose Concentration in the blood,"[5]; 1 day upon completion of peptide administration (3 μg per rat, 11 days)",222.5 ± 10.3 mg %
same,Glucose Concentration in the blood,[5]; [9],254.5 ± 16.2 mg %
same,Glucose Concentration in the blood,[5]; 9 days upon completion of peptide administration,183.9 ± 10.5 mg %
same,Glucose Concentration in the blood,[5]; [10],333.6 ± 12.4 mg %
same,Glucose Concentration in the blood,[5]; 18 days upon completion of peptide administration,236.7 ± 10.3 mg %
same,Glucose Concentration in the blood,[5]; 28 days upon completion of peptide administration,221.5 ± 11.2 mg %
same,Glucose Concentration in the blood,[5]; 44 days upon completion of peptide administration,210.8 ± 9.3 mg %
same,Glucose Concentration in the blood,[5]; 58 days upon completion of peptide administration,198.9 mg %
same,lethality,"[5]; by the end of the investigation, 84 days after alloxan (control 70%)",36.4%
same,Glucose Concentration in the blood,"[5]; initial level, before alloxan and before peptide",81.1 ± 3.8 mg %
same,decrease of the blood glucose level,[5]; overall figure,38.4%
same,decrease of the blood glucose level,[5]; range in brackets,30-47.7%
same,lethality decrease,[5]; versus control group,two-fold
same,survived animals,[6]; 40th day after alloxan administration (control 57.1%),75%
same,Glucose Concentration in blood,[6]; 5 days after alloxan administration,247.3 ± 17.2 mg %
same,Glucose Concentration in blood,"[6]; 7 days from the onset of tetrapeptide administration (1 course, 3 μg per rat), healthy rats before alloxan",94.0 ± 0.8 mg %
same,Glucose Concentration in blood,[6]; 14 days after alloxan administration,261.5 ± 39.5 mg %
same,Glucose Concentration in blood,[6]; 18 days after alloxan administration (start of 2nd course),159.0 ± 32.6 mg %
same,Glucose Concentration in blood,[6]; 28 days after alloxan administration (end of 2nd course),77.3 ± 1.3 mg %
same,Glucose Concentration in blood,[6]; 33 days after alloxan administration,90.7 ± 5.2 mg %
same,Glucose Concentration in blood,[6]; 40 days after alloxan administration,107.7 ± 6.4 mg %
same,effect on blood glucose level,[6]; administration to healthy animals,did not lead to the decrease of blood glucose level
same,decrease of blood glucose level as compared to the controls,[6]; after one course,22-30%
same,blood glucose level,"[6]; after the second course, 28th, 33rd, 40th day",complete normalisation of the blood glucose level
same,rats with severe form of diabetes mellitus,[6]; control: 5 rats out of 7,2 rats out of 8
same,Glucose Concentration in blood,"[6]; initial level, before peptide",76.8 ± 1.1 mg %
